Laboratory results published in patent US11339148B2, “Crystalline forms of the CXCR7 receptor antagonist (3S,4S)-1-Cyclopropylmethyl-4-{[5-(2,4-difluoro-phenyl)-isoxazole-3-carbonyl]-amino}-piperidine-3-carboxylic acid (1-pyrimidin-2-yl-cyclopropyl)-amide” (IDORSIA PHARMACEUTICALS LTD., priority 2018, dated 2022).

Experiment: Gravimetric vapour sorption (GVS) / moisture sorption
Type: physicochemical
Details: at 95% RH; 25° C.
Method: Gravimetric Vapour Sorption (GVS) Analysis
Measurements are performed on a multi sample instrument SPS-100n (Projekt Messtechnik, Ulm, Germany) operated in stepping mode at 25° C.

For `O=C(N[C@H]1CCN(CC2CC2)C[C@@H]1C(=O)NC1(c2ncccn2)CC1)c1cc(-c2ccc(F)cc2F)on1` [Example 2, (3S,4S)-1-Cyclopropylmethyl-4-{[5-(2,4-difluoro-phenyl)-isoxazole-3-carbonyl]-amino}-piperidine-3-carboxylic acid (1-pyrimidin-2-yl-cyclopropyl)-amide in Crystalline Form 2], the Moisture sorption was “Sorption of 6.9% at 95% RH”.
